Assay results from patent publication US20180230399A1, “ORGANIC COMPOUNDS” (GIVAUDAN SA, priority 2014, published 2018).
Like-named read-outs stand apart in the source and are kept apart here.

Experiments:
[1] = system: hepatocytes from male rats (Sprague Dawley); test: In vitro metabolism study in rat hepatocytes in suspension, GC-MS; details: for Benzoic acid derivative concentration / Residual conc.: male, Sprague-Dawley, rat, 4 h, 100 μM
Protocol: In order to study in vitro metabolism in rat hepatocytes, Lilial™ and compounds of the present invention may be incubated in the presence of rat hepatocytes in suspension. Reduction in the concentration of Lilial™ and the compounds of the present invention and formation of any of the corresponding benzoic acid derivatives may be analysed by GC-MS.
Cryopreserved hepatocytes from male rats (Sprague Dawley; Lifetechnologies) were defrozen, washed in Cyropreserved Hepatocytes Recovery Medium (CHRM; Lifetechnologies) and suspended in Williams E Medium (WEM; Lifetechnologies). Lilial™, or the compounds of the present invention (final concentration: 100 μM) were added to the cells (1×10^6 viable cells/ml) and suspensions were incubated up to 4 hours at 37° C. on a shaker in duplicate. Metabolism of testosterone was monitored as positive control. Decrease of the test compounds and formation of the corresponding benzoic acid derivative was determined by GC-MS analysis of methyl esters formed after derivatisation with trimethylsilyl diazomethane (Sigma-Aldrich) in methanol. The test compounds react with diazomethane yielding a methyl ketone which was used for the quantification of Lilial™ and the compound of formula (I). Metabolism was stopped with ice cold 1 M HCl, samples were extracted with tert-butyl methyl ether (MTBE) and analysed by GC-MS. Incubations containing testosterone as control were also stopped with ice cold 1 M HCl, centrifuged to separate the cells, filtrated and the decrease of testosterone analysed by LC-MS. To quantify decrease of the test substances and formation of benzoic acid metabolites, calibration curves of reference materials Lilial™ and the compounds of the present invention, tert-butyl benzoic acid (Fluka) was prepared in hepatocyte incubation medium and analysed like the hepatocyte samples.

[2] = Formation of the corresponding esters with Coenzym A; type: in vitro ADME; details: further experiment
guinea-pigs = details: cited from earlier work
primates = details: cited from earlier work
mice = details: cited from earlier work
glucose synthesis = details: in vitro; McCune et al 1982; cited from earlier work
male rats = details: Hunter et al. 1965, Cagen et al. 1989; cited from earlier work
fatty acid synthesis = details: in vitro; McCune et al 1982; cited from earlier work

For `CC(C)c1ccc(CCCC=O)cc1`, which “Benzoic acid derivative concentration” value [1] is on record?
The value was 1.4 µM.

And the Residual conc. [1]?
Its Residual conc. is 0 µM.

With `CC(C)(C)c1ccc(CCCC=O)cc1` as the molecule, how does the “Benzoic acid derivative concentration” value [1] read?
The value was 1.3 µM.

What about the Residual conc. [1] of the same molecule?
The Residual conc. was 0.7 µM.

With `CC(C)Cc1ccc(CCCC=O)cc1` as the molecule, how does the “Benzoic acid derivative concentration” value [1] read?
The value was 0.5 µM.

And the Residual conc. [1]?
The Residual conc. was 0.2 µM.

For `Cc1cc(CC(C)C)ccc1CCCC=O` [Example 3, 4-(4-Isobutyl-2-methylphenyl)butanal], which “Formation of the corresponding esters with Coenzym A” value [2] is on record?
Its value is “does not provide the formation of the corresponding esters with Coenzym A”.

Which Effects in studies (guinea-pigs) does the source give for `CC(C=O)Cc1ccc(C(C)(C)C)cc1` (stereo not shown) [Lilial™, 3-(4-tert-butylphenyl)-2-methylpropanal] here?
The Effects in studies was “No effects”.

What about the “Decrease of the test compound (in words)” value [1] of the same molecule?
The value was “metabolised rapidly”.

And the Residual conc. [1]?
The Residual conc. was 0 µM.

What about the Effects in studies (primates) of the same molecule?
Its Effects in studies is “No effects”.

And the Effects in studies (mice)?
Its Effects in studies is “No effects”.

With `CC(C)(C)c1ccc(C(=O)O)cc1` [tert-Butyl benzoic acid, tert-butyl benzoic acid] as the molecule, how does the “Inhibition of glucose synthesis” value (glucose synthesis) read?
Its value is “inhibit”.

What about the Testicular effects (male rats) of the same molecule?
The Testicular effects was “testicular effects”.

And the “Inhibition of fatty acid synthesis” value (fatty acid synthesis)?
The value was “inhibit”.

For `C[C@]12CC[C@H]3[C@@H](CCC4=CC(=O)CC[C@@]43C)[C@@H]1CC[C@@H]2O` [testosterone], which “Decrease of the test compound (in words)” value ([1]; rat hepatocytes, up to 4 hours at 37° C.) is on record?
The value was “rapid decrease”.
